Results taken from patent US20130137975A1, “PET IMAGING” (OSI PHARMACEUTICALS, LLC, priority 2010, published 2013).
Like-named read-outs stand apart in the source and are kept apart here. Blank lines part the entries; values can stand above or below the molecule they belong to.

Tests used:
[1] = system: NCI-H441 xenografts; assay: tumor growth of NCI-H441 xenografts under daily treatment; assay type: in vivo, mice; details: daily treatment with 60 mg/kg
Description: (§1) Palpable tumors were evident approximately 10 days post implant. When the tumors achieved a volume of approximately 300 mm^3, the animals were sorted, randomized, and placed on study.

[2] = target: IGF-1R (Homo sapiens, UniProt P08069); details: 1 μM OSI-906; panel of 116 kinases; cited from earlier work
IGF-1R, sequence (P08069 31-1367): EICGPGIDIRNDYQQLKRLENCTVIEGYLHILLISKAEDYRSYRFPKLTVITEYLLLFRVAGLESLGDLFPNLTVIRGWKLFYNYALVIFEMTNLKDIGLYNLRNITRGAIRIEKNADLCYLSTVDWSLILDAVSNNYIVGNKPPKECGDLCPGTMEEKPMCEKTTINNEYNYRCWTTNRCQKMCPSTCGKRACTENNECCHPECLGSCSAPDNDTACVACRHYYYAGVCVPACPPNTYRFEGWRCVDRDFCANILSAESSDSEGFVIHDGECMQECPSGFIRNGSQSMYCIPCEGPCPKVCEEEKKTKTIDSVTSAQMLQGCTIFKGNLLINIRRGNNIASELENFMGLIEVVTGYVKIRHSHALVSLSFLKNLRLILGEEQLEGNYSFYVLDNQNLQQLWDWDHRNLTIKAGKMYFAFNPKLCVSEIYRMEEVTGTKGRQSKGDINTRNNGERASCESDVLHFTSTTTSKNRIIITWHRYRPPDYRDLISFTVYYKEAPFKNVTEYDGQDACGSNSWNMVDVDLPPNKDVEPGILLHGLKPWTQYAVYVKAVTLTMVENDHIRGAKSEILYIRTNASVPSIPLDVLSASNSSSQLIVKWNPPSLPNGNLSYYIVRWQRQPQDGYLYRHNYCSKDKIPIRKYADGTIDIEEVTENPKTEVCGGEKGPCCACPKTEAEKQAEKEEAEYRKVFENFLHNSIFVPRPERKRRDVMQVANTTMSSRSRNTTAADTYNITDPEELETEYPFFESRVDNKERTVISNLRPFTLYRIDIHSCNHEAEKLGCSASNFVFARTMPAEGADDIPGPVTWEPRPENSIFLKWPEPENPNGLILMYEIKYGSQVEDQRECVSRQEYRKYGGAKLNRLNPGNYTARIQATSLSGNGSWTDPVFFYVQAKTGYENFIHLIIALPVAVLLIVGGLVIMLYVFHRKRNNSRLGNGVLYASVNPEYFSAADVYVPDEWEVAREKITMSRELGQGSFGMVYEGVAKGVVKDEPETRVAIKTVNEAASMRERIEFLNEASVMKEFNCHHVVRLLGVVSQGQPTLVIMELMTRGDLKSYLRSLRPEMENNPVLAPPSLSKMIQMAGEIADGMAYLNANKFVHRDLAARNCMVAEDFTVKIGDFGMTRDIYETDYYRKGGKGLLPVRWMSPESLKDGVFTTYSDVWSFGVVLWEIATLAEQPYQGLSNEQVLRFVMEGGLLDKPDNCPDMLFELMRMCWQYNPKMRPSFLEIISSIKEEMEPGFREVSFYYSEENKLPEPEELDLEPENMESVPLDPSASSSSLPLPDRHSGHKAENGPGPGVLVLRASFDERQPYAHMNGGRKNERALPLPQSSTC

[3] = system: H292 cells; assay: analysis for cell death by FACS; assay type: cell-based; details: 1.0-30 μM, compared to 0.05% DMSO controls
[4] = target: T1, pIGF-1R (Homo sapiens, UniProt P08069); assay: Western blot of NCI-H292 cells, target inhibition; assay type: cell-based
T1 construct: endogenous in cells; host or cells: NCI-H292
T1 sequence (P08069 31-1367): as above

[5] = system: H292 cells; assay: 3H-2-deoxyglucose uptake assay in H292 cells; assay type: cell-based; details: for 3H-2-deoxyglucose uptake (FIG. 16): 30 minute treatment, selected concentrations of each agent
Experimental: (§2) H292 and H441 cells were seeded in 12 well microtiter plates (Becton Dickinson) at 9.0×10^5 cells per well in normal glucose (11.1 mM) media for 6 hours (n=3 wells/group). The media was then changed to 5.5 mM glucose media and the cells were allowed to equilibrate overnight. On the day of the assay the media was again removed and replaced with 0.0 mM glucose (glucose starvation) for three hours. […] After a 5, 30, or 45-minute exposure the media was removed, the cells placed on ice and washed with ice-cold PBS buffer solution. The PBS was then removed and the cells were lysed in RIPA buffer for 15 minutes on ice. The lysates were harvested and counted in a Packard Liquid Scintillation counter.

[6] = system: NCI H292 xenografts; assay: tumor growth of NCI H292 xenografts under daily treatment; assay type: in vivo, mice; details: daily treatment with 60 mg/kg
Description: as §1

[7] = system: H441 xenografts; assay: 18F-FDG-PET imaging of H441 xenografts; assay type: in vivo, athymic nu/nu mice; details: 60 mg/kg oral; any time point evaluated (2, 4, 24 hours)
Experimental: (§3) Palpable tumors were evident approximately 10 days post implant. […] Mice were fasted from food 12 hours prior to imaging with ^18F-FDG (VUIIS Cyclotron). […] After dosing, the mice were kept isolated in a chamber at a constant temperature of 30° C. using a warm air circulating device (Harvard Apparatus). […] After 30 minutes, PET imaging was performed using a Concord small animal PET imager. Images were then collected and reconstructed. Analyses of separate regions of interest (ROI) drawn over the area of the tumors (and muscle) were conducted and glucose uptake was calculated as % injected dose per gram of tissue against known phantom standards.

[8] = system: pERK, pAKT, pS6, AS160; assay: Western blot of NCI-H292 tumor lysates in vivo, markers of altered glycolysis; set-up: species or system mice; details: 60 mg/kg
Experimental: as §1
Tumors were homogenized in 1 mL of TGH buffer per 200 mg of tissue on ice at 15,000 rpm until total homogenization was achieved. For analysis of IGF-1R and IR phosphorylation status, after pre-clearing by centrifugation (14,000 rpm/5 minutes), the lysate was incubated overnight at 4° C. with an antiphosphotyrosine antibody, and 30 μL Protein A-sephorase was then added and further incubated for an additional two hours. […] Antibodies were obtained from Santa Cruz Biotechnology.

[9] = system: pAKT, pS6, pERK, AS160; assay: Western blot of H292 in vitro cell lysates, downstream markers of altered glycolysis; assay type: cell-based
[10] = system: H292 xenografts; assay: 18F-FDG-PET imaging of H292 xenografts; assay type: in vivo, athymic nu/nu mice; details: 60 mg/kg oral; 2 and 4 hours post dosing
Experimental: as §3

[11] = system: H292 tumors; assay: 18F-FDG biodistribution study, H292 tumors; assay type: in vivo, athymic nu/nu mice; details: 60 mg/kg oral; between 2 and 8 hours post treatment; scintillation counting
Experimental: Palpable tumors were evident approximately 10 days post implant. […] Mice were fasted for 12-16 hours prior to dosing with the radiopharmaceutical. […] Mice were kept isolated and under a warming lamp at a temperature of approximately 30° C. One hour before the desired sacrifice time, the mice were dosed with 4-6 μCi of ^18F-FDG via the lateral tail vein. The mice were sacrificed 60 minutes later via CO2 asphyxiation, and selected tissues removed, rinsed, weighed and then placed into scintillation tubes. The samples were counted using a Cobra II Scintillation Counter and the % injected dose per gram of tissue calculated against prepared standards.

[12] = system: NCI-H441 cells; assay: 3H-2-deoxyglucose uptake assay in H441 cells; assay type: cell-based; details: 30 minutes after treatment; higher doses than in NCI H292 cells
Experimental: as §2

[13] = target: T2, phospho-IGF1-R (Homo sapiens, UniProt P08069); assay: target inhibition in H292 tumor lysates in vivo (RTK array analysis); set-up: species or system mice; details: for inhibition at 60 mg/kg: NCI-H292, read-out: target inhibition of phospho-IGF1-R, single dose 60 mg/kg
T2 construct: endogenous in cells; host or cells: NCI-H292 cells grown as subcutaneous xenograft tumours in athymic nu/nu mice
T2 sequence (P08069 31-1367): as above
Description: All animal studies were under the approval of the Institutional Animal Care and Use Committee in an American Association for Accreditation of Laboratory Animal Care-accredited vivarium and in accordance with the Institute of Laboratory Animal Research (Guide for Care and Use of Laboratory Animals, NIH, Bethesda, Md.). Mice were 8-week-old athymic nu/nu mice (Charles Rivers) and were housed in clean specific pathogen free rooms in groups of four mice per cage. The mice were allowed access to sterile rodent chow and water ad libitum except when undergoing FDG-PET imaging, as noted. The H292 and H441 cells were harvested from T225 flasks at 90% confluency and implanted in the right thigh subcutaneously at a concentration of 1.0×10^7 cells per 100 μL of PBS inoculum. […] When the tumors achieved a volume of approximately 300 mm^3, the animals were sorted, randomized, and placed on study.
Tumor lysates were prepared according to the manufacturer's protocol (Proteome Profiler, R&D Systems). Briefly, tumor lysates were solubilized in NP-40 lysis buffer and re-suspended for 30 minutes at 2° C. with rocking. This preparation was centrifuged at 14,000×g for 5 minutes and transferred to a clean tube. Protein concentration was then determined by BCA assay. The lysate was then incubated with the Human Phospho-RTK array at 1000 μg overnight at 2° C. with rocking. The arrays were then washed, and incubated with freshly prepared detection antibody for two hours. After washing, the arrays were exposed to film for 0.5-3.0 minutes. The developed arrays were then quantitfied using a Kodak scanner and image analysis software.

- pIGF-1R ([4]; 30 minutes of exposure, all doses (FIG. 12)): target inhibition
- pIGF-1R, time course ([4]; 2 hours, all concentrations (10 nM, 100 nM, 500 nM)): reduction
- inhibition at 60 mg/kg ([13]; 2 and 4 hours post treatment): ~85%
- inhibition at 60 mg/kg ([13]; 24 hours): 70%
- target inhibition of pIGF-1R, RTK array (FIGS. 17 and 18) ([13]; single 60 mg/kg treatment, 2, 4 and 24 hours): strong target inhibition
Structure (SMILES): CC1(O)CC(c2nc(-c3ccc4ccc(-c5ccccc5)nc4c3)c3c(N)nccn23)C1 (stereo not drawn) [OSI-906, cis-3-[8-amino-1-(2-phenyl-quinolin-7-yl)-imidazo[1,5-a]pyrazin-3-yl]-1-methylcyclobutanol]
- tumor growth compared to vehicle-treated cohort [1]: do not exhibit a difference in tumor growth
- inhibition of IGF-1R [2]: greater than 50%
- cell death by FACS analysis [3]: no significant cell death
- pIGF-1R, time course ([4]; through 24 hours, 10 nM, 100 nM, 500 nM): inhibition remains through 24 hours in all but the lowest, 10 nM concentration
- 3H-2-deoxyglucose uptake (FIG. 16) [5]: rapid inhibition
- 3H-2-deoxyglucose uptake, onset ([5]; as early as five minutes post treatment, increasing concentrations): significant decrease
- tumor growth compared to vehicle controls [6]: significant tumor growth inhibition
- 18F-FDG uptake (PET SUV) [7]: do not demonstrate a significant change
- phospho-AKT, phospho-S6, phospho-ERK and AS160 in tumor lysates ([8]; 4 hours post treatment, compared to untreated control lysates): decreased signal intensity
- pERK, pAKT, pS6 in tumor lysates ([8]; 24 hours post dose): return to baseline levels
- signal intensity of phospho-AKT, phospho-S6 and AS160 bands ([9]; 0.0 μM-30 μM, 30 minutes after drug treatment (FIG. 11)): dose dependent response with respect to decreased signal intensity
- downstream targets pERK, pAKT, pS6, AS160 ([9]; 30 minutes of exposure (FIG. 12)): inhibition of downstream targets
- 18F-FDG uptake (PET SUV) [10]: significant decrease
- decrease of 18F-FDG uptake in tumor samples compared to vehicle control animals [11]: 20-50%
- 3H-2-deoxyglucose uptake (FIG. 13) [12]: dose dependent decrease

Structure (SMILES): C=C1[C@@H](C)[C@H]2[C@H](Cc3ccccc3)NC(=O)[C@]23OC(=O)/C=C/[C@H](O)CCC[C@@H](C)C/C=C/[C@H]3[C@@H]1O [Cytochalasin B, reference compound]
- 3H-2-deoxyglucose uptake, positive control ([5]; 2.5-10 μM, 30 minutes post treatment (FIG. 3)): significantly inhibits uptake

Structure (SMILES): C#Cc1cccc(Nc2ncnc3cc(OCCOC)c(OCCOC)cc23)c1 [erlotinib, reference compound]
- 3H-2-deoxyglucose uptake (FIG. 16) [5]: rapid inhibition
